This is an account of results in US5670331A, “Methods for optimizing fluoropyrimidine cancer therapy” (The University of Alabama Research Foundation, priority 1995, dated 1997).

Holding throughout (assay type): biochemical
Experiment [1] concerns Nucleoside Kinases. The experiment in a line: Pyrimidine nucleoside kinase kinetics, human liver. The following applies: substrate of nucleoside kinases; for Km / Vmax: 37° C. Here is the method:
(§1) Enzyme activities were determined isotopically as the products, nucleotides, nucleosides, bases, β-amino-acid, etc. formed from their respective radiolabeled substrates, bases and/or nucleosides. All assays were run at 37° C. under conditions where activity was linear with time and enzyme concentration. […] Reactions were started by the addition of extract and stopped by boiling in a water bath for 2 minutes followed by freezing. Precipitated proteins were removed by centrifugation. A 10-25 μl aliquot of the supernatant fluid was spotted on the appropriate TLC plate and developed in the appropriate solvent system. Separated substrate and product(s) were counted on a TLC Analyzer (Berthold). The amounts of substrate and product(s) were calculated on a percentage basis.
(§2) The assay mixture contained 50 mM Tris-Cl, pH 7.4; 3-60 μM radiolabeled nucleoside ([2-^14 C]thymidine or [2-^14 C]5-fluoro-2'-deoxyuridine); 2.5 mM ATP; 5 mM creatine phosphate; 25 mM NaF; and 50 μl of sonicate to which was added a dash of phosphocreatine kinase in a final volume of 100 μl. After termination of the reaction and centrifugation, the supernatant was spotted on silica gel TLC plates. The plates were developed in a solution of chloroform:methanol:acetic acid (56:24:4, v/v/v) to separate the nucleosides which migrate with the front from the nucleotides which remain at the origin. When assaying patients, the assays are run at about 4.4 μM 5-fluoro-2'-deoxyuridine or about 6.4 μM thymidine.
(§3) The apparent Km and Vmax, as well as the enzyme efficiency values were calculated using computer programs based on Wilkinson-Cleland procedures. Because of the number of patients used, a two-tailed t-test was applied to determine the degree of significance of the difference in enzymatic activities between healthy volunteers, tolerant and intolerant subjects.

The subject of experiment [2] is Nucleoside Phosphorylase. As to the kind of experiment: Pyrimidine nucleoside phosphorylase kinetics, human mononuclear cell sonicate. The following applies: substrate of nucleoside phosphorylase, human mononuclear cells; for Km / Vmax: 37° C. The protocol: (§4) All procedures are carried out at room temperature, using solutions preheated to 37° C. Blood samples were withdrawn in aliquots of 30 ml into 60 ml syringes, containing 5 ml heparin (1,000 Units/ml). Blood and heparin were immediately mixed by inverting the syringes. The mixture was layered onto HISTOPAQUE-1077 (15 ml), in a 50 ml conical centrifuge tube and centrifuged for 30 minutes at 400 ×g. The upper layer was then aspirated with a Pasteur pipet and discarded, while the opaque interface containing the mononuclear cells was aspirated into a fresh conical tube containing 10 ml growth medium (RPMI-1640 medium: 5% FBS:0.050M HEPES, pH 7.4) and mixed by inverting the tubes. The cells were pelleted by centrifugation for 10 minutes at 250 ×g then resuspended into fresh growth medium by gentle aspiration with a Pasteur pipet. After two more washing, the cells were suspended into 10 ml fresh growth media.
(§5) The following buffers were used: Buffer A (20 mM potassium phosphate, pH 8.0) and Buffer B (50 mM Tris-Cl, pH 7.5). Mononuclear cells were washed 2-3 times as described above except that buffer B was substituted for the growth medium. The cells were then sonicated (1:2 v/v) in buffer B using a sonic dismembrator (Fisher model 300). The sonicate was then used as the enzyme source.
as §1
(§6) The assay mixture contained Buffer A, 33-600 μM radiolabeled nucleoside ([2-^14 C]uridine, [2-^14 C]thymidine or [2-^14 C]5-fluoro-2'-deoxyuridine), and 50 μl of sonicate in a final volume of 100 μl. After termination of the reaction and centrifugation, the nucleosides were separated from their respective nucleobases on silica gel TLC plate developed with chloroform:methanol:acetic acid (90:5:5 v/v/v). When assaying patients, the assay is run at about 226 μM 5-fluoro-2'-deoxyuridine, about 169 μM thymidine or about 114 μM uridine.
as §3

In experiment [3] the test system is Nucleoside Phosphorylase. As to the kind of experiment: Pyrimidine nucleoside phosphorylase kinetics, human liver. The following applies: substrate of nucleoside phosphorylase; for Km / Vmax: 37° C. The protocol: as §1, §6, §3
Experiment [4] has as its system Nucleoside Kinases. The experiment in a line: Pyrimidine nucleoside kinase kinetics, human mononuclear cell sonicate. The following applies: substrate of nucleoside kinases, human mononuclear cells; for Km / Vmax: 37° C. Here is the method:
as §4, §5, §1, §2, §3

As to `O=c1[nH]c(=O)n([C@H]2C[C@H](O)[C@@H](CO)O2)cc1F` [5-Fluoro-2'-deoxyuridine, 5-fluoro-2'-deoxyuridine], the “Vmax /Km” value in the experiment with Nucleoside Kinases [1] is listed as 5.17 min^-1 × 10^3; in the experiment with Nucleoside Phosphorylase [2], 6.22 min^-1 × 10^3; in the experiment on Nucleoside Phosphorylase [3], 111.90 min^-1 × 10^3; in the experiment with Nucleoside Kinases [4] it was 2.89 min^-1 × 10^3. The Km amounted to 3.1 µM in the experiment on Nucleoside Kinases [1], 226 µM with Nucleoside Phosphorylase [2], 215 µM with Nucleoside Phosphorylase [3] and 4.39 µM in the experiment with Nucleoside Kinases [4]. Further, the Vmax is 0.016 nmol/min/mg in the experiment on Nucleoside Kinases [1], 1.404 nmol/min/mg in the experiment with Nucleoside Phosphorylase [2], 24.041 nmol/min/mg in the experiment with Nucleoside Phosphorylase [3] and 0.013 nmol/min/mg in the experiment on Nucleoside Kinases [4].

`O=c1[nH]c(=O)n([C@@H]2O[C@H](CO)[C@@H](O)[C@H]2O)cc1F` [5-Fluorouridine]: in the experiment on Nucleoside Kinases [1], the “Vmax /Km” value stood at 0.50 min^-1 × 10^3, the Michaelis constant (Km) amounted to 25.1 µM and the Vmax amounted to 0.013 nmol/min/mg. In the experiment with Nucleoside Phosphorylase [3], the “Vmax /Km” value worked out at 8.62 min^-1 × 10^3, the Km came to 286 µM and the maximum rate (Vmax) is 2.470 nmol/min/mg.

For the compound `Cc1cn([C@H]2C[C@H](O)[C@@H](CO)O2)c(=O)[nH]c1=O` [Thymidine, thymidine], the “Vmax /Km” value with Nucleoside Kinases [1] came to 4.00 min^-1 × 10^3; in the experiment on Nucleoside Phosphorylase [2], 6.34 min^-1 × 10^3; in the experiment on Nucleoside Phosphorylase [3], 76.15 min^-1 × 10^3; in the experiment on Nucleoside Kinases [4], 2.40 min^-1 × 10^3. Moreover, the Km was 6.41 µM in the experiment on Nucleoside Kinases [1], 168 µM in the experiment on Nucleoside Phosphorylase [2], 256 µM in the experiment on Nucleoside Phosphorylase [3] and 6.45 µM in the experiment with Nucleoside Kinases [4]. Further, the Vmax was 0.025 nmol/min/mg in the experiment with Nucleoside Kinases [1], 1.068 nmol/min/mg in the experiment with Nucleoside Phosphorylase [2], 19.471 nmol/min/mg in the experiment with Nucleoside Phosphorylase [3] and 0.015 nmol/min/mg in the experiment on Nucleoside Kinases [4].

For the compound `O=c1ccn([C@@H]2O[C@H](CO)[C@@H](O)[C@H]2O)c(=O)[nH]1` [Uridine, uridine], the “Vmax /Km” value worked out at 0.55 min^-1 × 10^3 with Nucleoside Kinases [1], 3.79 min^-1 × 10^3 in the experiment on Nucleoside Phosphorylase [2], 172.00 min^-1 × 10^3 with Nucleoside Phosphorylase [3] and 7.00 min^-1 × 10^3 in the experiment with Nucleoside Kinases [4]. Moreover, the Km in the experiment on Nucleoside Kinases [1] was 55.8 µM; with Nucleoside Phosphorylase [2], 114 µM; in the experiment on Nucleoside Phosphorylase [3] it was 99.1 µM; in the experiment on Nucleoside Kinases [4] it was 40.3 µM. Also, the Vmax was determined as 0.031 nmol/min/mg in the experiment with Nucleoside Kinases [1], 0.431 nmol/min/mg in the experiment on Nucleoside Phosphorylase [2], 1.703 nmol/min/mg in the experiment with Nucleoside Phosphorylase [3] and 0.027 nmol/min/mg with Nucleoside Kinases [4].

One may read the Km as the substrate concentration at which the rate is half of its maximum. Usually Vmax stands for the top rate of the reaction or transport when substrate is in excess.
